# Test results reported in the supplement of paper PMC10883282.
# ± gives the standard deviation of the averaged measurements.
# Tested on: SW982
# Experiment: relative viability vs DMSO control (72 h) (fraction); higher = more viable cells
# Summary of the method: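 Plates held 72 h at 37 °C and 5% CO2 contained sarcoma cell lines seeded in 384-well format to reach 80–90% confluence, plus 2.5 µl of serially diluted compound added after 24 h. Source plate concentrations ran from 10 mM to 0.0002 mM, with 0.1% DMSO as vehicle and a 5 µM positive control. Percent growth from ATPLite readings, averaged over up to triplicate wells, gave relative viability. Values were rescaled with 1 as full and 0 as none.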
SMILES,relative viability (0.00017 µM),relative viability (0.00051 µM),relative viability (0.00152 µM),relative viability (0.00457 µM),relative viability (0.01372 µM),relative viability (0.04115 µM),relative viability (0.1235 µM),relative viability (0.3704 µM),relative viability (1.111 µM),relative viability (3.333 µM),relative viability (10 µM),relative viability (2 pM),relative viability (5 pM),relative viability (15 pM),relative viability (50 pM),relative viability (0.00014 µM),relative viability (0.00041 µM),relative viability (0.0012 µM),relative viability (0.0037 µM),relative viability (0.011 µM),relative viability (200 fM),relative viability (600 fM)
CC(C)NC(=O)C1CCC(n2c(NC(=O)c3ccc(F)cc3)nc3ccc(CN4CCC(C(C)(C)O)CC4)cc32)CC1 (stereo not drawn) [Belizatinib],1.09 ± 0.024,1.06 ± 0.023,1.05 ± 0.037,1.06 ± 0.03,1.06 ± 0.02,1.03 ± 0.054,0.974 ± 0.048,0.766 ± 0.045,0.383 ± 0.035,0.173 ± 0.011,0.0273 ± 0.0064,,,,,,,,,,,
C=CC(=O)N1CCC[C@@H](n2nc(-c3ccc(Oc4ccccc4)cc3)c3c(N)ncnc32)C1 [Ibrutinib],1.02 ± 0.016,1.06 ± 0.039,1.07 ± 0.011,1.05 ± 0.035,1.03 ± 0.033,1.05 ± 0.02,1.05 ± 0.035,1.06 ± 0.051,1.08 ± 0.036,1.04 ± 0.027,0.845 ± 0.044,,,,,,,,,,,
O=C(Cc1ccc(-c2ccc(OCCN3CCOCC3)cc2)cn1)NCc1ccccc1 [KX2-391],1.01 ± 0.037,1.07 ± 0.021,1.06 ± 0.04,1.06 ± 0.013,1.037 ± 0.0061,0.661 ± 0.02,0.299 ± 0.019,0.269 ± 0.017,0.265 ± 0.023,0.2804 ± 0.00064,0.278 ± 0.0036,,,,,,,,,,,
CC(=O)Nc1cccc(-n2c(=O)n(C3CC3)c(=O)c3c(Nc4ccc(I)cc4F)n(C)c(=O)c(C)c32)c1 [Trametinib],0.993 ± 0.045,0.988 ± 0.044,0.981 ± 0.028,0.938 ± 0.051,0.893 ± 0.095,0.866 ± 0.07,0.847 ± 0.084,0.848 ± 0.038,0.858 ± 0.049,0.838 ± 0.049,0.799 ± 0.027,,,,,,,,,,,
COc1cc2nccc(Oc3ccc(NC(=O)Nc4cc(C)on4)c(Cl)c3)c2cc1OC [Tivozanib],1.06 ± 0.039,1.07 ± 0.048,1.06 ± 0.021,1.05 ± 0.037,1.08 ± 0.038,1.07 ± 0.033,1.08 ± 0.017,1.08 ± 0.046,1.07 ± 0.058,0.985 ± 0.029,0.571 ± 0.021,,,,,,,,,,,
COc1cc2c(cc1O)CCN[C@]21CS[C@@H]2c3c(OC(C)=O)c(C)c4c(c3[C@H](COC1=O)N1[C@@H]2[C@H]2c3c(cc(C)c(OC)c3O)C[C@@H]([C@@H]1O)N2C)OCO4 [Trabectedin],,,,,,,,,,,,0.929 ± 0.036,0.86 ± 0.035,0.765 ± 0.031,0.639 ± 0.034,0.385 ± 0.021,0.266 ± 0.0099,0.194 ± 0.0051,0.186 ± 0.0075,0.1406 ± 0.00098,0.987 ± 0.031,0.9423 ± 0.004
CNC(=O)c1cc(Oc2ccc(NC(=O)Nc3ccc(Cl)c(C(F)(F)F)c3)c(F)c2)ccn1 [Regorafenib],1.03 ± 0.017,1.09 ± 0.057,1.08 ± 0.043,1.1 ± 0.052,1.06 ± 0.032,1.08 ± 0.057,1.09 ± 0.044,1.09 ± 0.056,0.997 ± 0.037,0.8827 ± 0.0051,0.795 ± 0.0056,,,,,,,,,,,
C[C@@H]1CCN(C(=O)CC#N)C[C@@H]1N(C)c1ncnc2[nH]ccc12 [Tofacitinib],1.01 ± 0.036,1.05 ± 0.03,1.04 ± 0.03,1.03 ± 0.031,1.07 ± 0.037,1.03 ± 0.05,1.05 ± 0.05,1.06 ± 0.035,1.05 ± 0.042,1.04 ± 0.034,0.93 ± 0.081,,,,,,,,,,,
COc1cc2c(Oc3ccc4[nH]c(C)cc4c3F)ncnc2cc1OCCCN1CCCC1 [Cediranib],1.04 ± 0.034,1.058 ± 0.007,1.06 ± 0.044,1.06 ± 0.027,1.06 ± 0.031,1.04 ± 0.013,1.06 ± 0.029,0.967 ± 0.07,0.914 ± 0.077,0.959 ± 0.012,0.961 ± 0.01,,,,,,,,,,,
CC[C@H](Nc1ncnc2[nH]cnc12)c1nc2cccc(F)c2c(=O)n1-c1ccccc1 [Idelalisib],1.06 ± 0.033,1.06 ± 0.039,1.05 ± 0.039,1.07 ± 0.027,1.07 ± 0.055,1.08 ± 0.033,1.07 ± 0.04,1.067 ± 0.0099,1 ± 0.029,0.948 ± 0.074,0.778 ± 0.011,,,,,,,,,,,
Cc1cc(Nc2ncnc3ccc(NC4=NC(C)(C)CO4)cc23)ccc1Oc1ccn2ncnc2c1 [Tucatinib],1.05 ± 0.062,1.11 ± 0.02,1.1 ± 0.022,1.09 ± 0.031,1.078 ± 0.0072,1.088 ± 0.0077,1.08 ± 0.035,1.059 ± 0.01,1.08 ± 0.046,1.1 ± 0.044,1.06 ± 0.026,,,,,,,,,,,
Cn1cc(-c2cc3c(N4CCN(c5ncc([C@@](C)(N)c6ccc(F)cc6)cn5)CC4)ncnn3c2)cn1 [Avapritinib],0.99 ± 0.026,0.956 ± 0.05,0.957 ± 0.093,0.93 ± 0.07,0.964 ± 0.061,0.962 ± 0.081,0.902 ± 0.033,0.928 ± 0.025,0.905 ± 0.044,0.894 ± 0.033,0.8071 ± 0.0062,,,,,,,,,,,
CC(C)(C)c1cc(NC(=O)Nc2ccc(-c3cn4c(n3)sc3cc(OCCN5CCOCC5)ccc34)cc2)no1 [Quizartinib],1.06 ± 0.028,1.05 ± 0.017,1.05 ± 0.03,1.05 ± 0.029,1.06 ± 0.017,1.06 ± 0.022,1.06 ± 0.027,1.04 ± 0.031,1.05 ± 0.017,1.05 ± 0.039,1.05 ± 0.039,,,,,,,,,,,
O=C(Nc1cnn2ccc(N3CCC[C@@H]3c3cc(F)ccc3F)nc12)N1CC[C@H](O)C1 [Larotrectinib],1.02 ± 0.015,1 ± 0.022,1.01 ± 0.036,1.07 ± 0.026,1.07 ± 0.031,1.058 ± 0.0089,1.05 ± 0.025,1.02 ± 0.019,1.05 ± 0.027,1.05 ± 0.032,1.01 ± 0.02,,,,,,,,,,,
Cc1nc(-c2cn3c(n2)-c2ccc(-c4cnn(C(C)(C)C(N)=O)c4)cc2OCC3)n(C(C)C)n1 [Taselisib],1.03 ± 0.045,1.04 ± 0.023,1.02 ± 0.043,1.02 ± 0.02,1.02 ± 0.034,0.968 ± 0.02,0.898 ± 0.026,0.7957 ± 0.0075,0.633 ± 0.035,0.506 ± 0.016,0.339 ± 0.02,,,,,,,,,,,
Cc1nc(NC(=O)N2CCC[C@H]2C(N)=O)sc1-c1ccnc(C(C)(C)C(F)(F)F)c1 [Alpelisib],0.989 ± 0.04,0.929 ± 0.033,0.98 ± 0.021,0.95 ± 0.02,0.997 ± 0.014,0.959 ± 0.055,0.964 ± 0.031,0.927 ± 0.052,0.845 ± 0.026,0.725 ± 0.022,0.596 ± 0.026,,,,,,,,,,,
Cn1cnc2c(F)c(Nc3ccc(Br)cc3F)c(C(=O)NOCCO)cc21 [Binimetinib],0.974 ± 0.046,1.04 ± 0.019,1.07 ± 0.018,0.981 ± 0.056,0.99 ± 0.05,0.92 ± 0.058,0.833 ± 0.043,0.831 ± 0.051,0.809 ± 0.038,0.786 ± 0.035,0.765 ± 0.042,,,,,,,,,,,
CCc1cc2c(cc1N1CCC(N3CCOCC3)CC1)C(C)(C)c1[nH]c3cc(C#N)ccc3c1C2=O [Alectinib],1.05 ± 0.043,1.06 ± 0.035,1.058 ± 0.0041,1.06 ± 0.026,1.04 ± 0.022,1.05 ± 0.017,1.032 ± 0.0038,1.05 ± 0.022,1.07 ± 0.019,1.06 ± 0.038,1.06 ± 0.046,,,,,,,,,,,
